Data set [1] in a line: Solubility n JP2 fluid. Type of data set: physicochemical.
The target in data set [2] is Adenosine receptor A2a (Homo sapiens) (UniProt P29274). The experiment in a line: Displacement of [3H]CGS21680 from human adenosine A2A receptor at 0.01 umol/L by scintillation counting. In general terms: Displacement assays read how much labelled ligand stays bound in the presence of the test substance.
The target is the same in data set [3]. Put plainly: Displacement of [3H]CGS21680 from human adenosine A2A receptor at 0.1 umol/L by scintillation counting.
Data set [4] is described as follows: Intrinsic clearance in marmoset liver microsome […]. Type of data set: ADME, Callithrix jacchus. The following applies: liver microsomes.
The nature of data set [5]: Intrinsic clearance in human liver microsome. As to conditions: liver microsomes. Type of data set: ADME. On the technique in general: Liver microsomes are a subcellular fraction often used to study metabolism.
The subject of another data set is Mus musculus. The experiment in a line: Antiparkinsonian effect in mouse assessed as inhibition of CGS-21680-induced catalepsy at 10 mg/kg, po. Type of data set: functional. As to conditions: for inhibition in vivo at 10 mg/kg: Mus musculus.
The target in data set [6] is T1, Adenosine receptor A1 (Homo sapiens) (UniProt P30542).
T1 sequence (whole entry): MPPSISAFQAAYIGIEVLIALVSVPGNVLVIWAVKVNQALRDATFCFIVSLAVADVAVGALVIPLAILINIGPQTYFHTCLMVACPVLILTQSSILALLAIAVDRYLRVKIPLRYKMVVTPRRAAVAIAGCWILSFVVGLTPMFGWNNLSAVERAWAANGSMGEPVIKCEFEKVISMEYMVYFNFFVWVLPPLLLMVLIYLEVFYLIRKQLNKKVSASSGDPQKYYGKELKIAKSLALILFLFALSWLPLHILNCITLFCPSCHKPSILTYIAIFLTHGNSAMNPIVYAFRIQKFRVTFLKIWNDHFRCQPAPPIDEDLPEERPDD
Put plainly: Antagonist activity at human adenosine A1 receptor at 1 umol/L. Type of data set: functional.

In data set [7] the target is T2, Adenosine receptor A2b (Homo sapiens) (UniProt P29275).
T2 sequence (whole entry): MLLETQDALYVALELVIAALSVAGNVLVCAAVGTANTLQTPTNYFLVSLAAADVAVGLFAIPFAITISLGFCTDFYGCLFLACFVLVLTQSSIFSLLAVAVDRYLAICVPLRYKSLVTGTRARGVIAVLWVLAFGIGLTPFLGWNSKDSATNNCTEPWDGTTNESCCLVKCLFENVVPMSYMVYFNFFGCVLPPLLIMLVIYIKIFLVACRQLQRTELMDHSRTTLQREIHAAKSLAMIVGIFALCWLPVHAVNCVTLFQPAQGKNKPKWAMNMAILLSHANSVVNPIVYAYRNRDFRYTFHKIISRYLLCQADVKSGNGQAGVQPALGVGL
Put plainly: Antagonist activity at human adenosine A2B receptor at 1 umol/L. Type of data set: functional.

≈ marks a conversion by molar mass, not a printed value.

Sequence of Adenosine receptor A2a (Homo sapiens) (P29274 whole entry): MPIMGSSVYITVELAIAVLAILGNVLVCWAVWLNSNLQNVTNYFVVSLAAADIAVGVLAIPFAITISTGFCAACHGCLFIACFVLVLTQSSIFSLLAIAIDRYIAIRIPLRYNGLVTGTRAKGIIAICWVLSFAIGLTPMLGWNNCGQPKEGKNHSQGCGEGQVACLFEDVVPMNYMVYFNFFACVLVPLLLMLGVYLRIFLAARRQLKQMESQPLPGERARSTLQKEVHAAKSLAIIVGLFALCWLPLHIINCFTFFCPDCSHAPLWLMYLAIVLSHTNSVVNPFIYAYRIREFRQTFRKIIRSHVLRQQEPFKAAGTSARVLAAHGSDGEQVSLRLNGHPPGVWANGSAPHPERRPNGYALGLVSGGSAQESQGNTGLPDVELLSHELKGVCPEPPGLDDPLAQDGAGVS

The solubility is the concentration that dissolves in the medium under given conditions. Read a high solubility as a readily soluble substance. The term inhibition denotes the relative decrease from the control value, in per cent. As usually defined, the CLint scaled is a measure of how fast metabolising enzymes remove a compound, apart from limits set by blood flow. Low readings indicate slow turnover, high ones rapid turnover. Take `COc1ccc(N2CCOCC2)c2cc(C(=O)Nc3ccc(Cn4ccnc4)cc3)oc12`: in data set [1], the concentration in solution (solubility) was 2 µg/mL (≈ 4.62 µM). Also, the inhibition was 50% in data set [2] and 89% in data set [3]. In data set [4], this compound showed a CLint scaled of 133 mL/min/kg.

Take `COc1ccc(-c2ccccn2)c2cc(C(=O)Nc3ccncc3)oc12`: the inhibition in data set [2] was 4%; in data set [3], 27%. Also, the CLint scaled in data set [5] is 37.2 mL/min/kg.

One may read the inhibition in vivo as the relative decrease from the control value, in per cent. On to `COc1ccc(-c2cccnc2)c2cc(C(=O)Nc3ccncc3)oc12`, for which the inhibition in data set [2] stood at 27%; in data set [3], 67%. This compound also had a CLint scaled in data set [5] of 57 mL/min/kg. Also, in the data set with Mus musculus, the inhibition in vivo at 10 mg/kg amounted to 38%.

As for `COc1ccc(-c2cccnc2)c2cc(C(=O)Nc3ccc(Cn4ccnc4)cc3)oc12`, the values for the inhibition in data set [2] and in data set [3] were 46% and 83%, respectively. Besides, the CLint scaled in data set [5] was 53 mL/min/kg. In the data set on Mus musculus, the inhibition in vivo at 10 mg/kg came out at 60%.

In data set [1], `COc1ccc(N2CCOCC2)c2cc(C(=O)Nc3ccncc3)oc12` returned a solubility of 87 µg/mL (≈ 246 µM). The inhibition in data set [2] worked out at 30%; in data set [6] it was 4%; in data set [3], 73%; in data set [7], 21%. In the data set with Mus musculus, the inhibition in vivo at 10 mg/kg came to 76%. Besides, in data set [4], the CLint scaled was < 7.17 mL/min/kg.

In data set [1], `COc1ccc(N2CCOCC2)c2cc(C(=O)Nc3ccc(CN4CCC(O)CC4)cc3)oc12` came in with a solubility of 47 µg/mL (≈ 101 µM). Moreover, the inhibition in data set [2] turned out to be 39%; in data set [3], 74%. The inhibition in vivo at 10 mg/kg with Mus musculus stood at 50%.

Consider `COc1ccc(-c2ccccc2)c2cc(C(=O)Nc3ccncc3)oc12`, for which the results for the inhibition in data set [2] and in data set [3] were 29% and 87%, respectively. In data set [5], the CLint scaled was 580 mL/min/kg. Further, in the data set with Mus musculus, the inhibition (INH) is 40%.

For the compound `COc1c(N2CCOCC2)ccc2cc(C(=O)Nc3ccncc3)oc12`, the inhibition in data set [3] is -5%.

Regarding `CCNC(=O)c1cc2c(N3CCOCC3)ccc(OC)c2o1`, the values for the inhibition in data set [2] and in data set [3] were 37% and 87%, respectively. In the data set on Mus musculus, the inhibition in vivo at 10 mg/kg worked out at 44%.

For the compound `COc1ccc(N2CCOCC2)c2oc(C(=O)Nc3ccncc3)cc12`, the values for the inhibition in data set [2] and in data set [3] were 26% and 77%, respectively.

With `COc1ccc(-c2cnccn2)c2cc(C(=O)Nc3ccncc3)oc12`, the inhibition in data set [2] was 24%; in data set [3], 22%. For the same compound, the CLint scaled in data set [5] is 154 mL/min/kg.

The compound `CNC(=O)c1cc2c(N3CCOCC3)ccc(OC)c2o1` yielded a solubility in data set [1] of 97 µg/mL (≈ 334 µM). The inhibition in data set [2] was 23%; in data set [3], 58%. The compound further showed a CLint scaled in data set [4] of 21.7 mL/min/kg.

As for `COc1ccc(N2CCOCC2)c2cc(C(=O)NC3CCN(c4ncccn4)CC3)oc12`, the inhibition in data set [2] was -2%; in data set [3] it was 26%.

As to `COc1ccc(-c2ccncc2)c2cc(C(=O)Nc3ccncc3)oc12`, the results for the inhibition in data set [2] and in data set [3] were 18% and 72%, respectively. In addition, the CLint scaled in data set [5] is 32.8 mL/min/kg. Besides, the inhibition in vivo at 10 mg/kg with Mus musculus was 48%.

As for `COc1ccc(-c2ccncc2)c2cc(C(=O)Nc3ccc(Cn4ccnc4)cc3)oc12`, the inhibition worked out at 56% in data set [2] and 90% in data set [3]. In data set [5], this compound had an intrinsic metabolic clearance (CLint scaled) of 40.7 mL/min/kg. For the same compound, the inhibition in vivo at 10 mg/kg with Mus musculus stood at 60%.

As for `COc1ccc(-c2cnccn2)c2cc(C(=O)Nc3ccc(Cn4ccnc4)cc3)oc12`, the inhibition in data set [2] stood at 20%; in data set [3] it was 44%. Moreover, in data set [5], the CLint scaled is < 7.83 mL/min/kg.

(Values after ChEMBL document CHEMBL1158596, “Synthetic studies on selective adenosine A2A receptor antagonists. Part II: synthesis and structure-activity relationships of novel benzofuran derivatives” (Bioorg Med Chem Lett, 2010).)
